{
  "source": "patent US11406614B2",
  "about": "“Composition comprising EPA and DHA for an enhanced efficacy of anticancer agents” (Fresenius Kabi Deutschland GmbH, priority 2016, dated 2022)",
  "test_system": "human colon adenocarcinoma cell line LS174T",
  "experiment": "Subcutaneous LS174T xenograft model, tumor growth inhibition",
  "parameters": "species or system BALB/c nude mice",
  "conditions": "mouse, in vivo",
  "protocol": "Example 2 was repeated with the anticancer agent fluorouracil (5-FU) and utilizing a different xen-ograft model involving the human colon adenocarcinoma cell line LS174T.\nThe suboptimal dose of 5-FU was determined with 75 mg/kg. The anticancer agent was intraperitoneally administered at the suboptimal dose once a week (days 11, 18 and 25 after inoculation). The emulsions were administered intravenously five times a week (Mo-Fr) at a dose of 2 ml/kg.\nThe results were statistically analyzed.",
  "data": [
    {"smiles": "O=c1[nH]cc(F)c(=O)[nH]1", "note": "[Composition 5-FU, fluorouracil]", "values": [
      {"measurement": "Suboptimal dose", "value": 75, "unit": "mg/kg"}
    ]}
  ]
}
